This is an account of results in patent US12138256B2, “Treatment of cardiopulmonary disorders” (Bayer Aktiengesellschaft, priority 2021, dated 2024).

The nature of series [1]: Phase I single dose inhaled, inhaled + charcoal block, oral and intravenous: pharmacokinetics and lung deposition (C-4.3). Type of series: in vivo, human. The following applies: for bioavailability / half-life: male, human, plasma; for half-life: read-out: elimination half-life (converted). The method, then: Healthy white male subjects, aged 18 to 45 years with a body mass index (BMI) above/equal 18.5 and below/equal 29.9 kg/m^2 were treated in a clinical phase I study with a single inhaled dose of 1000 μg (nominal dose), a single inhaled dose of 1000 μg (nominal dose)+charcoal block, a single oral dose of 1000 μg and a single infusion over 2 h of 100 μg of example 4. As the bioavailability of an intravenous application is generally 100% per definition and therefore higher than in case of an oral or […] administration, the intravenous dose was carefully selected to be lower than the oral and inhaled dose to avoid higher plasma concentration resulting from a high IV dose and potential side effect, e.g. reduction in blood pressure or syncope. Therefore, 100 μg was selected for the IV dose in this investigation. Seven days washout period between treatments was applied. The subjects swallowed a solution for oral administration (20 ml comprising 1000 μg, see under D-2, table 50). The subjects received a solution as a single infusion over 2 hours (see under D-2 table 50). The subjects inhaled the drug powder from capsules (see under D-1, e.g. tables 17 and 20) inserted into a handheld inhalation device by one deep inhalative breath. After inhalation of the dry powder formulation of this drug, some parts of the nominal dose remain in the capsule and the device, the dose which reaches the body at the mouthpiece is called the emitted dose. The emitted dose can be calculated/determined as followed: nominal dose−(remains in the capsule+remains in the device). After inhalation of the dry powder, one part of the emitted dose enters the gastrointestinal tract (GIT) and is called the oral part of the emitted dose, the other part of the emitted dose which reaches the lung through the respiratory airways is called the lung dose and represents the lung deposited dose. As the lung is the target organ of the effect, the lung deposited dose must be quantified. Lung deposition can be indirectly estimated, by determining the part of the nominal dose which reaches the GIT and the remains in the capsule and the device. To investigate and determine lung deposition, the following investigations were done (see also FIG. 77): • 1—Inhaled application of a single dose of 1000 μg of the dry powder. • 2—Inhaled application of a single dose of 1000 μg of the dry powder in combination with oral administration of charcoal block. The charcoal block capped the oral absorption of GIT part of the dose, as example 4 completely adsorbed to charcoal block. This implies that the concentrations of example 4 measured reach the systemic circulation via the lung. • 3—Administration of a single oral dose of 1000 μg example 4 to determine the oral absorption. • 4—Administration of a 2 h infusion of example 4 to investigate the elimination.
Plasma concentrations of example 4 were measured after all different types of administrations, in addition the remains in the device and the capsule were measured after inhaled application. […] The longer terminal half-life after inhalation can be explained by the formation of a pulmonary depot of example 4 in the lungs from which the substance is continuously transferred to the circulatory system.
The emitted dose is calculated to be 720 μg, as the remains in the capsule were 160 μg and the remains in the device were 120 μg, see FIG. 79.

A short description of series [2]: Phase I, healthy male subjects, 7 days inhalation: plasma concentrations over time (C-4.1). The following applies: all doses administered. Type of series: in vivo, human. The method, then: Healthy White male subjects, aged 18 to 45 years and with a body mass index (BMI) above/equal 18.5 and below/equal 29.9 kg/m2 were treated in a clinical pharmacological phase I study on seven days with inhaled once daily doses of 480 μg or 1000 μg or 2000 μg (2 capsules of 1000 μg) (nominal dose) of dry powder formulations of example 2 or Placebo. The subjects inhaled the drug powder from capsules (see under D-1, e.g. tables 22 and 23) inserted into a handheld inhalation device by one deep inhalative breath. The dry powder formulation of the drug is dispersed into the airstream and fine particles are transported into the deep parts of the lung where it is intended to cause a vasodilation of the blood vessels in PH patients for a substantial reduction of increased blood pressure in the central pulmonary blood vessels in PAH patients or other subtypes of PH. This effect cannot be shown in subjects with healthy lungs. In addition inhaled drug causes a dilation of the bronchial airways and thus also improves disease states of lung diseases in PH patients with pathological bronchoconstriction. This effect was measured via bodyplethysmography as reduction of Specific Airway Resistance in healthy subjects. […]

The subject of the next series is plasma proteins. Briefly: Protein binding via Transil assay, rat plasma. Type of series: in vitro ADME. The following applies: rat plasma. From the text: The distribution of a test substance between Transil® (phosphatidylcholine lipid bilayers immobilized on silica beads) and plasma is a characteristic feature of any pharmaceutical compound and is dependent on its extent of binding to plasma proteins. By comparing the distribution between Transil® and buffer with the distribution between Transil® and plasma of any species of interest, the unbound fraction in the plasma of the respective animal species can be calculated in vitro. The respective plasma and buffer concentrations were determined via a radioactivity analysis. A detailed description of the method and its validation was published by Schuhmacher et al. (2).

Series [3] concerns guinea pig trachea pre-contracted with carbachol. As to the kind of experiment: Bronchorelaxation in vitro: carbachol pre-contracted guinea pig trachea rings, wash-out recovery factor (C-3.1). The following applies: 1 μmol/l. The method, then:
Male Dunkin Hartley guinea pig were euthanized using carbon dioxide. The primary bronchus was removed and placed in ice-cold Krebs-Henseleit buffer of following composition (in mmol/l): […] For recording of isometric tension, the bronchial rings were mounted between two hooks. One hook was connected to a force transducer the other was moveable and allowed a precise adjustment of resting tension at 1.5 g. During the equilibration period of 60 min the tissue was washed every 20 min with buffer. […] After 30 min, a cumulative dose response curve of the test compound was constructed. Every concentration was incubated till the response was stable. […] The relaxation was expressed as percentage tension. […] The recovery factor was calculated as a ratio of bronchodilation 1 h after compound application and bronchodilation 1 h after removal (wash out) of test compound. […] Relaxation via Cinaciguat (comparative example 1) and Riociguat (comparative example 2) reached a steady state within the 1 h incubation time. […] In contrast, relaxation induced by comparative example 11 was further progressing during the wash out period (recovery factor 1.41).

Where two headings read alike, the source gives them in different places.

Usually bioavailability stands for dose-corrected exposure relative to a reference, in per cent. The half-life is the time in which the quantity being followed falls by half. On to `O=C(O)c1ccc(CCN(CCc2ccccc2OCc2ccc(-c3ccc(C(F)(F)F)cc3)cc2Cl)[C@H]2CCCc3nc(C(=O)O)ccc32)cc1` [example 4, (5S)-{[2-(4-Carboxyphenyl)ethyl][2-(2-{[3-chloro-4′-(trifluoromethyl)biphenyl-4-yl]methoxy}phenyl)-ethyl]amino}-5,6,7,8-tetrahydroquinoline-2-carboxylic acid], for which the emitted dose in series [1] (after inhalation of 1000 μg in humans) is 720 µg. The “oral part of the dose” value in series [1] (inhaled 1000 μg) is given as “approximately 13 % of the nominal dose”. In addition, the bioavailability in series [1] (inhaled or intranasal, 1000 μg, dry powder inhaled with charcoal (lung dose), read-out: absolute bioavailability) worked out at 16.3%; in series [1] (inhaled or intranasal, 1000 μg, dry powder inhaled without charcoal, read-out: absolute bioavailability), 18.8%; in series [1] (inhaled or intranasal, 1000 ug, read-out: relative bioavailability, inhaled with charcoal block to inhaled without), 86.9%. The half-life was 16.1 h in series [1] (inhaled or intranasal, 1000 ug, inhaled 1000 μg with charcoal); 15.1 h in series [1] (inhaled or intranasal, 1000 ug, inhaled 1000 μg without charcoal); 0.26 h in series [1] (iv, 100 μg, intravenous, 100 μg infusion over 2 h); 4.43 h in series [1] (po, 1000 ug, oral, 1000 μg solution).

`O=C(O)c1ccc(CCN(CCc2ccccc2OCc2ccc(-c3ccc(C(F)(F)F)cc3)cc2Cl)[C@H]2CCCc3nc(C(=O)O)ccc32)cc1` [example 2, (5S)-{[2-(4-Carboxyphenyl)ethyl][2-(2-{[3-chloro-4′-(trifluoromethyl)biphenyl-4-yl]methoxy}phenyl)-ethyl]amino}-5,6,7,8-tetrahydroquinoline-2-carboxylic acid]: the “persistence of measurable plasma concentration after first inhalation” value in series [2] came out at 48 h.

Turning to `O=C(O)c1ccc(CCN(CCc2ccccc2OCc2ccc(-c3ccc(C(F)(F)F)cc3)cc2Cl)[C@H]2CCCc3nc(C(=O)O)ccc32)cc1` [comparative example 11, (5S)-5-{[2-(4-carboxyphenyl)ethyl][2-(2-{[3-chloro-4′-(trifluoromethyl)[biphenyl]-4-yl]methoxy}phenyl)ethyl]amino}-5,6,7,8-tetrahydroquinoline-2-carboxylic acid], the “fraction unbound, times lower than comparative example 1” value with plasma proteins was 1.6 times. Further, in series [3], the “Relaxation (%) (timepoint at 70 min) Mean” value was determined as 72.2% and the “Relaxation (%) (timepoint at 130 min) Mean” value came out at 51.3%.
